Test results as given in patent US20250326794A1, “ANTI-CANCER LEUCINE-RICH PEPTIDES AND USES THEREOF” (KING'S COLLEGE LONDON, priority 2019, published 2025).
Where two headings read alike, the source gives them in different places.

How the values were obtained:
[1] = tested on: U2OS (human bone osteosarcoma)
Excerpt: (§1) HMLER (human mammary endothelial cancer cells), HMLER-shEcad (human mammary endothelial cancer stem cells), and MCF-10A (healthy human mammary endothelial) cells were maintained in Mammary Epithelial Cell Growth Medium (MEGM) with supplements and growth factors: bovine pituitary extract (BPE), hydrocortisone, human epidermal growth factor (hEGF), insulin, and gentamicin/amphotericin-B. HEK293T (human embryonic kidney cell), and U2OS (Homo sapiens bone osteosarcoma) cells were maintained in Dulbecco's Modified Eagle's Medium (DMEM) with a final concentration of 10% fetal bovine serum. The cells were grown in T75 flask at 310 K in a humidified atmosphere containing 5% CO2.
(§2) The colourimetric MTT (3-(4,5-dimethylthiazol-2-yl)-2,5-diphenyltetrazolium bromide) assay was used to determine the toxicity of the anticancer peptides and conventional anticancer drugs. 5×10^3 cells were seeded in each well of a 96-well microplate. The cells were incubated overnight. Elevated concentrations of the compounds (0, 0.1, 0.2, 0.4, 0.8, 1.6, 3.1, 6.3, 12.5, 25, 50 and 100 μM) were added and incubated for 72 hr with a total volume 200 μL. The stock solutions of the compounds were prepared as 5 mM solutions in DMSO and diluted using media or in pure water. The final concentration of DMSO in each well was either 0.5% or 0% and this amount was present in the untreated control. After 72 hr, 20 μL of a 4 mg/mL solution of MTT in PBS was added to each well, and the plate was incubated for an additional 4 hr. The MEGM/MTT mixture was aspirated and 100 μL of DMSO was added to dissolve the resulting purple formazan crystals. The absorbance of the solutions in each well was read at 550 nm wavelength. Absorbance values were normalized to either DMSO-containing or non DMSO-containing control wells and plotted as concentration of test compound versus % cell viability. IC50 values were interpolated from the resulting dose dependent curves.
(§3) The peptides were screened against several different human cell lines and their cytotoxicity were determined. Cell lines utilised include MCF-10A (human breast epithelial cell), HMLER (human breast cancer bulk cell), HMLER-shEcad (human breast cancer stem cell), HEK293T (human embryonic kidney cell), and U2OS (human bone osteosarcoma).

[2] = Tryptophan fluorescent binding assay, POPC vesicles; details: 50 μM peptide, PBS pH 7.4, lipid per peptide
Protocol: (§4) In brief, 50 μM peptides were fixed and incubated with titrated POPC vesicles (black) or 3POPC/1POPG vesicles (grey) at concentrations of 0, 12.5, 25, 50, 100, 250, 500, 1000, 2500, and 5000 μM in phosphate buffered saline (1×, pH 7.4). The lipid concentration that causes 50% peptide binding was determined using a tryptophan fluorescent binding assay and the values are shown as lipid per peptide.
(§5) The lipids 1-palmitoyl-2-oleoyl-sn-glycero-3-phosphocholine (POPC), 1-palmitoyl-2-oleoyl-snglycero-3-phospho-(1′-rac-glycerol) (POPG) were purchased from Avanti Polar Lipids and dissolved in chloroform. Large unilamellar vesicles (LUVs) were produced by extrusion through 100 nm pore filter using an extruder and filters purchased from Avanti Polar Lipids.
(§6) Peptides (50 μM) and POPC/POPG LUVs (600 μM) were prepared in 10 mM phosphate buffer (pH 7.0). The solutions were incubated and measured after 60 minutes. Excitation was fixed at 280 nm (slit 9 nm) and emission was collected from 300 to 450 nm (slit 9 nm). The spectra were recorded using a Synergy H1 Hybrid Multi-Mode Reader (FIG. 3A) and Cytation™ 5 Cell Imaging Multi-Mode Reader (FIG. 2) from BioTek and were averaged over 3 scans.
(§7) Table 3 illustrates the lipid concentration-induced 50% peptide binding onto a liposome. 50 μM peptide was fixed and incubated with titrated lipid (POPC vesicles or 3POPC/1POPG vesicles) at concentrations of 0, 12.5, 25, 50, 100, 250, 500, 1000, 2500, and 5000 μM in phosphate buffered saline (1×, pH 7.4). The lipid concentration that causes 50% peptide binding was determined using tryptophan fluorescent binding assay and the values are shown as lipid per peptide. †N-terminus is free, C-terminus: —W—NH2.

[3] = Tryptophan fluorescent binding assay, 3POPC/1POPG vesicles; details: 50 μM peptide, PBS pH 7.4, lipid per peptide
Protocol: as §4, §5, §6, §7

[4] = ANTS/DPX liposome leakage assay, POPC vesicles; type: biochemical; details: 0.5 mM vesicles; for Peptide Concentration-induced 50% ANTS/DPX leakage at pH 4.8, POPC Vesicle: pH 4.8, lipid per peptide; for Peptide Concentration-induced 50% ANTS/DPX leakage at pH 7.4, POPC Vesicle: pH 7.4, lipid per peptide
Protocol: (§8) In brief, 0.5 mM POPC vesicles (grey) or POPC:POPG vesicles (ratio 3:1, black) were incubated with peptide concentrations of 0, 0.02, 0.04, 0.08, 0.16, 0.32, 0.64, 1.25, 2.5, 5, 10, and 20 μM in each A) hydrochloric acid-adjusted phosphate buffered saline (1×, pH 4.8) and B) phosphate buffered saline (1×, pH 7.4).
as §5
(§9) 5 mM ANTS (8-aminonaphthalene-1,3,6-trisulfonic acid, disodium salt) and 12.5 mM DPX (p-xylene-bis-pyridinium bromide) were entrapped in 0.1 μm diameter extruded vesicles with lipids. Gel filtration chromatography using a Sephadex G-100 (GE Healthcare Life Sciences Inc) was used to remove external free ANTS/DPX from LUVs with entrapped contents. LUVs were diluted to 0.5 mM and used to measure the leakage activity by addition of aliquots of peptides. Leakage was measured after 3 h incubation. 10% Triton was used as the positive control to measure the maximum leakage of the vesicle. Fluorescence emission spectra were recorded using excitation and emission wavelength of 350 nm and 510 nm for ANTS/DPX using a BioTek Synergy H1 Hybrid Multi-Mode Reader.
(§10) Table 4 illustrates peptide concentration-induced 50% ANTS/DPX liposome leakage. 0.5 mM POPC and 3POPC/1POPG vesicles were fixed and incubated with titrated peptide concentration ([…]) each in phosphate buffered saline (1×, pH 7.4) and hydrochloric acid-adjusted phosphate buffered saline (1×, pH 4.8). The values are shown as lipid per peptide. †N-terminus is free, C-terminus: —W—NH2.

[5] = tested on: HMLER (human breast cancer bulk cell); assay: cells
Excerpt: as §1, §2, §3

[6] = tested on: HMLER-shEcad (human breast cancer stem cell); assay: cells
Excerpt: as §1, §2, §3

[7] = tested on: HEK293T (human embryonic kidney cell); assay: cells
Excerpt: as §1, §2, §3

[8] = ANTS/DPX liposome leakage assay, 3POPC/1POPG vesicles; type: biochemical; details: 0.5 mM vesicles; for Peptide Concentration-induced 50% ANTS/DPX leakage at pH 4.8, 3POPC/1POPG Vesicle: pH 4.8, lipid per peptide; for Peptide Concentration-induced 50% ANTS/DPX leakage at pH 7.4, 3POPC/1POPG Vesicle: pH 7.4, lipid per peptide
Protocol: as §8, §5, §9, §10

Row | SMILES | IC50 ([1]; 72 h) [µM] | Lipid Concentration-induced 50% Peptide Binding, POPC Vesicle [2] [L/P] | Lipid Concentration-induced 50% Peptide Binding, 3POPC/1POPG Vesicle [3] [L/P] | Peptide Concentration-induced 50% ANTS/DPX leakage at pH 4.8, POPC Vesicle [4] [L/P] | Peptide Concentration-induced 50% ANTS/DPX leakage at pH 7.4, POPC Vesicle [4] [L/P] | IC50 ([5]; 72 h) [µM] | IC50 ([6]; 72 h) [µM] | IC50 ([7]; 72 h) [µM] | Peptide Concentration-induced 50% ANTS/DPX leakage at pH 4.8, 3POPC/1POPG Vesicle [8] [L/P] | Peptide Concentration-induced 50% ANTS/DPX leakage at pH 7.4, 3POPC/1POPG Vesicle [8] [L/P] | IC50 ([1]; read-out: IC50 U20S, MTT, 72 hr) [µM] | IC50 ([5]; read-out: IC50 HMLER, MTT, 72 hr) [µM] | IC50 ([6]; read-out: IC50 HMLER-shEcad, MTT, 72 hr) [µM] | IC50 ([7]; read-out: IC50 HEK293T, MTT, 72 hr) [µM]
1 | CC(C)C[C@H](NC(=O)CN)C(=O)N[C@@H](CC(C)C)C(=O)N[C@@H](CC(=O)O)C(=O)N[C@@H](CC(C)C)C(=O)N[C@@H](CC(C)C)C(=O)N[C@@H](Cc1c[nH]cn1)C(=O)N[C@@H](CC(C)C)C(=O)N[C@@H](CC(C)C)C(=O)N[C@@H](CC(C)C)C(=O)N[C@@H](Cc1c[nH]cn1)C(=O)N[C@@H](C)C(=O)N[C@@H](C)C(=O)NCC(=O)N[C@@H](Cc1c[nH]c2ccccc12)C(N)=O [DHH] | 55.9 ± 18.9 | 0.67 | 0.28 | 106 | 684 | 21.4 ± 2.47 | 11.9 ± 0.14 | 6.4 ± 0.42 | 98 | 692 | – | – | – | –
2 | CC(C)C[C@H](NC(=O)CN)C(=O)N[C@@H](CC(C)C)C(=O)N[C@@H](CC(=O)O)C(=O)N[C@@H](CC(C)C)C(=O)N[C@@H](CC(C)C)C(=O)N[C@@H](Cc1c[nH]cn1)C(=O)N[C@@H](CC(C)C)C(=O)N[C@@H](CC(C)C)C(=O)N[C@@H](CC(C)C)C(=O)N[C@@H](CCCCN)C(=O)N[C@@H](C)C(=O)N[C@@H](C)C(=O)NCC(=O)N[C@@H](Cc1c[nH]c2ccccc12)C(N)=O [DHK] | – | 0.20 | 0.38 | 47 | 747 | – | – | – | 183 | 469 | 20.4 ± 2.05 | 1.75 ± 0.49 | 1.02 ± 0.12 | 7.3 ± 0.42
3 | CC(C)C[C@H](NC(=O)CN)C(=O)N[C@@H](CC(C)C)C(=O)N[C@@H](CC(=O)O)C(=O)N[C@@H](CC(C)C)C(=O)N[C@@H](CC(C)C)C(=O)N[C@@H](CCCCN)C(=O)N[C@@H](CC(C)C)C(=O)N[C@@H](CC(C)C)C(=O)N[C@@H](CC(C)C)C(=O)N[C@@H](CCC(=O)O)C(=O)N[C@@H](C)C(=O)N[C@@H](C)C(=O)NCC(=O)N[C@@H](Cc1c[nH]c2ccccc12)C(N)=O [DKE] | 9.93 ± 0.25 | 0.56 | 0.46 | 21 | 747 | 2.1 | 1.57 ± 0.33 | 7.8 ± 1.41 | 469 | 411 | – | – | – | –
4 | CC(C)C[C@H](NC(=O)CN)C(=O)N[C@@H](CC(C)C)C(=O)N[C@@H](CC(=O)O)C(=O)N[C@@H](CC(C)C)C(=O)N[C@@H](CC(C)C)C(=O)N[C@@H](CCCCN)C(=O)N[C@@H](CC(C)C)C(=O)N[C@@H](CC(C)C)C(=O)N[C@@H](CC(C)C)C(=O)N[C@@H](Cc1c[nH]cn1)C(=O)N[C@@H](C)C(=O)N[C@@H](C)C(=O)NCC(=O)N[C@@H](Cc1c[nH]c2ccccc12)C(N)=O [DKH] | 21.1 ± 3.01 | 10.00 | 0.46 | 41 | 614 | 3.45 ± 0.07 | 2.8 ± 0.28 | 6.15 ± 1.34 | 58 | 274 | – | – | – | –
5 | CC(C)C[C@H](NC(=O)CN)C(=O)N[C@@H](CC(C)C)C(=O)N[C@@H](CC(=O)O)C(=O)N[C@@H](CC(C)C)C(=O)N[C@@H](CC(C)C)C(=O)N[C@@H](CCCCN)C(=O)N[C@@H](CC(C)C)C(=O)N[C@@H](CC(C)C)C(=O)N[C@@H](CC(C)C)C(=O)N[C@@H](CCCCN)C(=O)N[C@@H](C)C(=O)N[C@@H](C)C(=O)NCC(=O)N[C@@H](Cc1c[nH]c2ccccc12)C(N)=O [DKK] | 10.4 ± 1.7 | 2.75 | 6.88 | 47 | 463 | 1.95 ± 0.35 | 1.2 ± 0.14 | 3.4 ± 0.28 | 227 | 156 | – | – | – | –
